Assay results taken from PMC12000319, “Proton conductance by human uncoupling protein 1 is inhibited by purine and pyrimidine nucleotides” (The EMBO Journal, 2025).
Values joined by “and” are separate entries in the source; they are usually repeats but may differ in a detail not shown here. Identical values can stand only once.

What was measured:
human DIC (SLC25A10) = molecular target: T1, human DIC (SLC25A10) (Homo sapiens, UniProt Q9UBX3); assay: Differential scanning fluorimetry (nanoDSF) thermal stability shift assay; assay type: binding; details: 1 mM nucleotide, pH 6.0, single repeats (source data Fig. 4A)
T1 construct: His8 (N, cleaved yes); Factor Xa protease cleavage site (N, cleaved yes); made in house; host or cells: Saccharomyces cerevisiae protease-deficient strain BJ2186
T1 sequence (Q9UBX3 1-287): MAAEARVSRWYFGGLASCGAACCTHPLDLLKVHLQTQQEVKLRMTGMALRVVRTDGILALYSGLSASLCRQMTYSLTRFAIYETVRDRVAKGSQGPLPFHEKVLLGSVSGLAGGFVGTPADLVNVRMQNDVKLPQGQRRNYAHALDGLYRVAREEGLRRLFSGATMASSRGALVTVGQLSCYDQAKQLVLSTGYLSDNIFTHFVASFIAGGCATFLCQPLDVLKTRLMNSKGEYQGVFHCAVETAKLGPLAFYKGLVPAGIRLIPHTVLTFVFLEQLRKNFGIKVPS
Source text: (§1) UCP1 is phylogenetically related to mitochondrial dicarboxylate carriers, gaining thermogenic properties as a later evolutionary development (Hughes et al, [2009]; Robinson et al, [2008]). The mitochondrial dicarboxylate carrier (DIC, SLC25A10) and oxoglutarate carrier (OGC, SLC25A11) are most closely related to UCP1 (Gaudry et al, [2019]; Hughes et al, [2009]) and share many residues involved in nucleotide binding in UCP1, such as the arginine triplet at the contact points, R92 and Q85 (Jones et al, [2024]). Given the similarity of the central cavity of UCP1, OGC and DIC, we tested whether the dicarboxylate carriers have the ability to bind nucleotides. For this purpose, we purified human DIC and OGC, and tested whether nucleotides were able to generate a thermostability shift, as observed for their physiological substrates (Pyrihová et al, [2024]). However, all tested nucleotides caused a negligible shift with both DIC or OGC at all pH values tested between 6.0 and 8.0 (Fig. 4A; Appendix Fig. S5). Thus, despite having many residues in common (Fig. 4B–D), UCP1 has evolved to have a few specific residues that allow high-affinity binding of nucleotides without a strong selection for nucleobase.
(§2) Differential scanning fluorimetry (nanoDSF) (Alexandrov et al, [2008]) was carried out with 2 µg UCP1, DIC or OGC protein (100 mM MES/HEPES, pH range 6.0–8.0, 25 mM NaCl, 1 mM TCEP, 0.01% lauryl maltose neopentyl glycol and 0.01 mg/mL tetraoleoyl cardiolipin) and, when required, 1 mM nucleotide, as indicated. The proteins have the following number of tryptophans: UCP1 (two); OGC (two); DIC (one). The samples were loaded into nanoDSF-grade standard glass capillaries. The temperature was increased by […] every minute from 25 to 95 °C, the intrinsic fluorescence was measured in a Prometheus NT.48 nanoDSF device, and the apparent Tm was calculated with the PR.ThermControl software (NanoTemper Technologies).

human OGC (SLC25A11) = molecular target: T2, human OGC (SLC25A11) (Homo sapiens, UniProt Q02978); assay: as above; assay type: binding; details: 1 mM nucleotide, pH 6.0, single repeats (source data Fig. 4A)
T2 construct: His8 (N, cleaved yes); Factor Xa protease cleavage site (N, cleaved yes); made in house; host or cells: Saccharomyces cerevisiae strain W303.1B
T2 sequence (Q02978 1-314): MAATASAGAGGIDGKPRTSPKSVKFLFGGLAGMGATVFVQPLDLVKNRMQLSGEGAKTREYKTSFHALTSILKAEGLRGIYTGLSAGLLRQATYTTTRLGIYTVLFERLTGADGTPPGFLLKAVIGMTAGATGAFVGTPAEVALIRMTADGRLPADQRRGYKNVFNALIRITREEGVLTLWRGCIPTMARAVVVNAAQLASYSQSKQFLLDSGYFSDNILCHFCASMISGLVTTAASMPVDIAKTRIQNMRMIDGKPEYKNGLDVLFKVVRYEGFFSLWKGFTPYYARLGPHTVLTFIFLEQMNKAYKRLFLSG
Source text: as §1, §2

UCP1 [1] = molecular target: T3, UCP1 (Homo sapiens, UniProt P25874); assay: Isothermal titration calorimetry of nucleotide binding; set-up: isotherm data point (enthalpy change per injection): unit not given here; details: for isotherm data point (enthalpy change per injection): representative isotherm;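 for all read-outs here: purified human UCP1 in cacodylate buffer with lauryl maltose neopentyl glycol and cardiolipin, titrated with nucleotides, isotherms fitted by one-site model yielding ΔH, Kd and stoichiometry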
T3 construct: His8 (N, cleaved yes); Factor Xa protease cleavage site (N, cleaved yes); made in house; host or cells: Saccharomyces cerevisiae strain W303.1B
T3 sequence (P25874 1-307): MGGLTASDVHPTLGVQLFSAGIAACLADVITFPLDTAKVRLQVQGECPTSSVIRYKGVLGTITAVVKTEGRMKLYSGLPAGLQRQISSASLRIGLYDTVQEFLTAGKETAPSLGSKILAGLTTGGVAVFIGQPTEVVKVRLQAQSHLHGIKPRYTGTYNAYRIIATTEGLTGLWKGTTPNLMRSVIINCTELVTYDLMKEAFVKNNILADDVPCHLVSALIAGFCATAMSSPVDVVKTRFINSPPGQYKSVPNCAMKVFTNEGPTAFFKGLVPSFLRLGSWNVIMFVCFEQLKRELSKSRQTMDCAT

UCP1 [2] = molecular target: T3, UCP1; assay: Liposome reconstitution and proton conductance assay (pyranine fluorescence); assay type: biochemical; details: UCP1 proteoliposomes, 200 µM oleic acid alone, 2.5 µM valinomycin; single reconstitutions
[3] = molecular target: T4, human uncoupling protein 1 (human, UniProt P25874); assay: cryo-EM structure; UCP1, PMb65 and PMb71 mixed stoichiometrically, overnight at 4 °C; complex separated by SEC (20 mM MES pH 6.0, 150 mM NaCl, 0.02% lauryl maltose neopentyl glycol, 0.02 mg/mL tetraoleoyl cardiolipin, 1 mM TCEP); 2 mM UTP and 2 mM D-maltose added; 3.03 Å; details: both partners purified
T4 construct: human uncoupling protein 1 (UCP1, SLC25A7), Uniprot P25874; Detergent-solubilised, with tetraoleoyl cardiolipin; also called UCP1; SLC25A7; source: Saccharomyces cerevisiae W303.1B, purified from mitochondria (Ni Sepharose, on-column Factor Xa cleavage); not shown: His8, N-terminal, cleaved

Nc1ncnc2c1ncn2[C@@H]1O[C@H](COP(=O)(O)OP(=O)(O)OP(=O)(O)O)[C@@H](O)[C@H]1O [ATP, adenosine triphosphate]
change in apparent melting temperature (ΔTm) of hDIC (human DIC (SLC25A10)): 1.0 and 0.5 and 0.8
change in apparent melting temperature (ΔTm) of hOGC (human OGC (SLC25A11)): 0.7 and 0.4
binding affinity to UCP1 (in words) (UCP1 [1]; ITC): highest binding affinities
Kd (UCP1 [1]; ITC, pH 6.0, 20 °C, mean ± standard deviation of three biological repeats (Fig. 2A-E)): 880 ± 120 nM
Kd (UCP1 [1]; ITC, single biological repeats (source data Fig. 2F)): 810 nM and 800 nM and 1020 nM
isotherm data point (enthalpy change per injection) (UCP1 [1]; Molar ratio (Nucleotide/UCP) 0.120417, pH 6.0, 20 °C): -35.3409
isotherm data point (enthalpy change per injection) (UCP1 [1]; Molar ratio (Nucleotide/UCP) 0.428528, pH 6.0, 20 °C): -34.4517
isotherm data point (enthalpy change per injection) (UCP1 [1]; Molar ratio (Nucleotide/UCP) 0.491383, pH 6.0, 20 °C): -33.5364
isotherm data point (enthalpy change per injection) (UCP1 [1]; Molar ratio (Nucleotide/UCP) 0.554656, pH 6.0, 20 °C): -34.076
isotherm data point (enthalpy change per injection) (UCP1 [1]; Molar ratio (Nucleotide/UCP) 0.618348, pH 6.0, 20 °C): -33.0757
isotherm data point (enthalpy change per injection) (UCP1 [1]; Molar ratio (Nucleotide/UCP) 0.682464, pH 6.0, 20 °C): -31.8617
isotherm data point (enthalpy change per injection) (UCP1 [1]; Molar ratio (Nucleotide/UCP) 0.811976, pH 6.0, 20 °C): -26.1456
isotherm data point (enthalpy change per injection) (UCP1 [1]; Molar ratio (Nucleotide/UCP) 0.877378, pH 6.0, 20 °C): -22.2535
isotherm data point (enthalpy change per injection) (UCP1 [1]; Molar ratio (Nucleotide/UCP) 0.943214, pH 6.0, 20 °C): -16.8687
isotherm data point (enthalpy change per injection) (UCP1 [1]; Molar ratio (Nucleotide/UCP) 1.0762, pH 6.0, 20 °C): -7.301
isotherm data point (enthalpy change per injection) (UCP1 [1]; Molar ratio (Nucleotide/UCP) 1.14336, pH 6.0, 20 °C): -4.354
isotherm data point (enthalpy change per injection) (UCP1 [1]; Molar ratio (Nucleotide/UCP) 1.21096, pH 6.0, 20 °C): -2.46
isotherm data point (enthalpy change per injection) (UCP1 [1]; Molar ratio (Nucleotide/UCP) 1.41647, pH 6.0, 20 °C): -1.066
isotherm data point (enthalpy change per injection) (UCP1 [1]; Molar ratio (Nucleotide/UCP) 1.69692, pH 6.0, 20 °C): -0.2462
isotherm data point (enthalpy change per injection) (UCP1 [1]; Molar ratio (Nucleotide/UCP) 1.76819, pH 6.0, 20 °C): 0.1511
isotherm data point (enthalpy change per injection) (UCP1 [1]; Molar ratio (Nucleotide/UCP) 1.91217, pH 6.0, 20 °C): -0.4754
isotherm data point (enthalpy change per injection) (UCP1 [1]; Molar ratio (Nucleotide/UCP) 1.98488, pH 6.0, 20 °C): 0.1711

CCCCCCCC/C=C\CCCCCCCC(=O)O [OA, oleic acid]
Proton influx rate (UCP1 [2]): 908.51 nmol H+/min and 699.43 nmol H+/min and 609.97 nmol H+/min

B1: Pro-macrobody PMb71 (VHH)
VHH: QVQLVESGGGLVQAGDSLRLSCAASGLTLKNYAMGWFRQAPGKEHEFVAVISWSGSGTSYADSVEGRFTISRDNAKNTAFLQMSSLKPEDTAVYYCAARDGGYGSRWPDEYTYWGQGTQVTVPP
notes: llama nanobody CA9871; Expressed from the vector pBXNPHM3 (Addgene 110099); also called CA9871; source: E. coli MC1061, purified (Ni-NTA, 3C cleavage, Strep-Tactin XT); not shown: His-tagged MBP, N-terminal, cleaved
binding result [3]: binds
